Experimental data from patent US20060078573A1, “Methods of modifying crystal habit” (priority 2004, published 2006).

Legend:
Format in all cases: physicochemical
[1] = BET surface area measurement (nitrogen adsorption at 77 K); conditions: nitrogen adsorbate, PSA:GF ratio based on mass charged to crystallizer
Procedure: A Quantachrome Autosorb-IC (Boynton Beach, Fla.) was used to measure surface areas of the samples at 77 K. A known amount of powder (typically 500 mg) was loaded into a Quantachrome powder cell and outgassed for about 1 hr. Nitrogen was used as the adsorbate, and the equations derived by Brunauer, Emmett, and Teller (BET) were used by the software provided with the instrument to calculate the specific surface areas.

[2] = Powder flow properties: bulk density, tapped density, compressibility (modified USP procedure); conditions: for Percent Compressibility: computed from bulk density and tapped density (equation 3)
Procedure: Bulk densities of selected samples were measured using a modified USP procedure. A mass of sample (M), typically 0.5 g, was passed through a No. 18 test sieve (ASTM USA Standard Test Sieve, Fischer Scientific) into a tared 10 mL graduated cylinder. The powder was carefully leveled and the unsettled apparent volume (Vo) was read to the nearest 0.05 mL. The bulk density (ρb) was then calculated using equation 1: [formula] Each bulk density measurement was performed in triplicate, and the average value was reported. Tapped densities of selected samples were also obtained using a modified USP procedure. After the bulk density had been determined from the procedure described above, the graduate cylinder was mechanically tapped by raising the cylinder and allowing it to drop under its own weight using an apparatus that provided a fixed drop height of 14±2 mm. The nominal tap rate was 60 drops per minute. The cylinder was initially tapped 500 times and the tapped volume (VT) was read to the nearest 0.05 mL. The procedure was then repeated, in increments of 500 taps, until the difference between succeeding measurements was less than 2%. The tapped density (ρt) was then calculated using equation 2: [formula] Each tapped density measurement was performed in triplicate, and the average values for each sample is reported. Powder compressibility was computed from the bulk density and tapped density using equation 3: [formula] Determination of Griseofulvin Content in the Powder Samples
Powder flow properties, as represented by the bulk density, tapped density, and percent compressibility, were determined for selected samples and are shown in Table 2.0, in which GF is griseofluvin and the PSA:GF ratio was based on the original mass charged to the crystallizer. Absent values from the table indicate inadequate sample volume for the measurement technique.

[3] = Short term stability study at ICH conditions, characterised by XRPD
Procedure: A short term stability study was conducted at two International Conference on Harmonization (ICH) stability conditions, i.e. 25° C./60% relative humidity and 40° C./75% relative humidity. A thin layer of powder was placed in a 20 mL capped glass scintillation vial, and the vials were placed in a sealed desicator that was set to either 25 or 40° C., and to the desired relative humidity over the appropriate saturated salt solution^32. Relative humidities of 60% and 75% were obtained using sodium bromide or sodium chloride, respectively. After initial storage (4 days), the samples were removed and characterized by XRPD. The samples were then returned to appropriate desicator and stored for another 19 days with the caps removed. Final sample characterization was by SEM and XRPD.

BET-Surface Area [1]: 2.98 m^2/g
Bulk Density ([2]; average of triplicate): 0.2 ± 0.02 g/mL
Tapped Density ([2]; average of triplicate, tapped in increments of 500 taps): 0.4 ± 0.02 g/mL
Percent Compressibility [2]: 49 +/− 3%
Percent Compressibility ([2]; listed as bulk griseofulvin): 49±3%
XRPD diffraction pattern after storage (phase change) ([3]; stored for 23 days at 25° C./60% RH): No new peaks
XRPD diffraction pattern after storage (phase change) ([3]; stored for 23 days at 40° C./75% RH): No new peaks
SMILES: COC1=CC(=O)C[C@@H](C)[C@]12Oc1c(Cl)c(OC)cc(OC)c1C2=O [Bulk GF, griseofulvin]
